The values that follow come from paper PMC4734386 (The Journal of organic chemistry, 2015).

For orientation: IC50 means the midpoint of a concentration-inhibition curve. Lower therefore signals inhibition by little substance.

This assay deals with porcine pancreatic elastase (PPE) (Sus scrofa, UniProt P00772). In words: PPE enzyme assay. The assay is classed as biochemical.
Sequence of porcine pancreatic elastase (PPE) (P00772 27-266): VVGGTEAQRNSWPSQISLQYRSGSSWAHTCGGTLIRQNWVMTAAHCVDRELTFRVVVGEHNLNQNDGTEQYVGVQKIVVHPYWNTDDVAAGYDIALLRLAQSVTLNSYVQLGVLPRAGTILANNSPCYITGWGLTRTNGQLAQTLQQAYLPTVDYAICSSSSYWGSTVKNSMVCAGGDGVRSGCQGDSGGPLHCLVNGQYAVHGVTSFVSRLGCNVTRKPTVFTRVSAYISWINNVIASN

Turning to `CC(C)(C)C(=O)Oc1ccc(S(=O)(=O)Nc2ccccc2C(=O)NCC(=O)O)cc1` [sivelestat], half-maximal inhibition (IC50) required 3.08 µM.
